Columns and labels:
HePTP [1] = biological target: T1, HePTP (Homo sapiens, UniProt P35236); assay: HePTP dose-response confirmation screening; format: biochemical; details: for IC50: 10 concentrations, 2-fold serial dilution, pNPP substrate; for n / nH (Hill coefficient): Hill coefficient of the dose-response curve
T1 sequence (P35236 1-360): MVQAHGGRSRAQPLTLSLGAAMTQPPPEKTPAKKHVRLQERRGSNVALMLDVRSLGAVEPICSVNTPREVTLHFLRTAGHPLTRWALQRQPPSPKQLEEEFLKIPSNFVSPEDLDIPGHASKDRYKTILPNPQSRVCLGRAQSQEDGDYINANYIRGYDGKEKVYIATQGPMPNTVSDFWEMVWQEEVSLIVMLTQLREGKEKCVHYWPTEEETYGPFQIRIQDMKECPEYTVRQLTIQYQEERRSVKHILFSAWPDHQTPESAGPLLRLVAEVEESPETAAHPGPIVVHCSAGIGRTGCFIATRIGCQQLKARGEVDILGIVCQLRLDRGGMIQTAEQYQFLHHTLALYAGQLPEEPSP
Excerpt: (§1) The following assay can be conducted manually or can be carried out by a robotic station.
(§2) Compounds are then serially diluted in 100% DMSO, and then diluted with water to 10% final DMSO concentration.
(§3) The primary screening actives can then proceed to the dose-response confirmation stage.
* n represents the Hill coefficient. This coefficient is derived from the Hill equation which has the formula: […]
wherein θ is the fraction of ligand binding sites filled, L is the inhibitor concentration, Ka is the inhibitor concentration producing half occupation of the ligand binding sites, and n is the Hill coefficient.

HePTP [2] = biological target: T1, HePTP; assay: HePTP HTS primary screen (colorimetric pNPP / Biomol Green); format: biochemical; details: 20 μM compound; read-out: % Inhib. at 20 μM
Excerpt: as §1
For this assay, HePTP catalyzes the following reaction:
wherein p-nitrophenyl phosphate serves as a substrate and is cleaved to form p-nitrophenol and phosphate. The liberated phosphate complexes with the Biomol Green™ reagent to provide a quantitative colorimetric value for the amount of substrate cleaved.
as §2, §3

IC50 (HePTP [1]) [nM] | n / nH (Hill coefficient) (HePTP [1]) | inhibition at 20 µM (HePTP [2]) [%] | SMILES
2300 | 1.79 | 100 | O=C(O)C(O)c1ccco1 (stereo not drawn) [2-(2-Furyl)-2-hydroxy-acetic acid]
1210 | 1.52 | 58.7 | CC(C)CN(C(=O)COC(=O)c1cc2c(s1)CCC2)C1CCS(=O)(=O)C1 (stereo not drawn) [[(1,1-Dioxothiolan-3-yl)-(2-methylpropyl)carbamoyl]methyl 4-thiabicyclo[3.3.0]octa-2,9-diene-3-carboxylate]
280 | 2.97 | 103 | CCOC(=O)c1ccc2c(c1)C1C=CCC1C(C(=O)O)N2 (stereo not drawn) [8-(ethoxycarbonyl)-3a,4,5,9b-tetrahydro-3H-cyclopenta[c]quinoline-4-carboxylic acid]
1690 | 3.77 | 86 | CCn1c(SC(C)C(=O)O)nc2c(c1=O)C1=C(CCC1)C2 (stereo not drawn)
1140 | 2.26 | 74.1 | c1coc(-c2nc(-c3ccco3)c(-c3ccco3)nc2-c2ccco2)c1 [2,3,5,6-tetrakis(2-furyl)pyrazine]
4660 | 2.66 | 103 | O=C(O)c1c[nH]c2ccc(S(=O)(=O)N3CCN(c4ccc(F)cc4)CC3)cc2c1=O [6-[4-(4-Fluorophenyl)piperazin-1-yl]sulfonyl-4-oxo-1H-quinoline-3-carboxylic acid]
13700 | 2.49 | 57.3 | CCCCC[C@H](O)/C=C/[C@H]1C=CC(=O)[C@@H]1C/C=C\CCCC(=O)O [(Z)-7-[(1R,2S)-2-[(E,3S)-3-Hydroxyoct-1-enyl]-5-oxo-1-cyclopent-3-enyl]hept-5-enoic acid]
4020 | 2.33 | 103 | COc1ccc(Cc2nnc(NC(=O)Cc3cccs3)s2)cc1 [N-{5-[(4-methoxyphenyl)methyl]-1,3,4-thiadiazol-2-yl}-2-thiophen-2-ylacetamide]
21600 | 2.83 | 50.5 | Cc1cc(C)n(-c2nc(Nc3ccccc3)nc(-n3nc(C)cc3C)n2)n1 [4,6-bis(3,5-Dimethylpyrazol-1-yl)-N-phenyl-1,3,5-triazin-2-amine]
1290 | 4.48 | 102 | CCn1c(SCC(=O)O)nc2c(c1=O)C1=C(CCC1)C2
2120 | 2.01 | 102 | Cc1ccc2c(c1C)NC(C(=O)O)C1CC=CC21 (stereo not drawn) [6,7-dimethyl-3a,4,5,9b-tetrahydro-3H-cyclopenta[c]quinoline-4-carboxylic acid]
8330 | 1.44 | 55.4 | CCOC(=O)C(C)Sc1nc2c(c(=O)[nH]c(=O)n2C)n1C/C=C(/C)Cl (stereo not drawn) [Ethyl 2-[7-[(Z)-3-Chlorobut-2-enyl]-3-methyl-2,6-dioxo-purin-8-yl]sulfanylpropanoate]
2330 | 1.45 | 81.2 | COC(=O)c1ccccc1NC(=O)c1noc2ccccc12 [Methyl 2-(4-oxa-3-azabicyclo[3.3.0]octa-2,9-diene-2-carbonylamino)benzoate]
2180 | 2.73 | 99.2 | COc1ccc2c(c1)=CC(=C1N=C(c3ccc(F)cc3)ON1)C(=O)N=2 (stereo in doubt) [(3Z)-3-[5-(4-fluorophenyl)-1,2,4-oxadiazol-3-ylidene]-6-methoxy-quinolin-2-one]
4900 | 1.47 | 102 | COc1ccc(Br)cc1C(=O)Nc1cccc(-c2nnc(-c3ccco3)o2)c1 [5-Bromo-N-[3-[5-(2-furyl)-1,3,4-oxadiazol-2-yl]phenyl]-2-methoxy-benzamide]
2430 | 2.33 | 90.2 | Cn1cnnc1SCC(=O)Nc1sc2c(c1C(=O)ON)CCC2 [N-[3-(aminooxycarbonyl)-5,6-dihydro-4H-cyclopenta[b]thiophen-2-yl]-2-(4-methyl-4H-1,2,4-triazol-3-ylthio)acetamide]
2740 | 1.32 | 53.9 | c1ccc(CSc2nnc(-c3ccco3)c(-c3ccco3)n2)cc1 [3-Benzylsulfanyl-5,6-bis(2-furyl)-1,2,4-triazine]

IC50 (HePTP [1]) [nM] | n / nH (Hill coefficient) (HePTP [1]) | inhibition at 20 µM (HePTP [2]) [%] | SMILES
400 | 2.66 | 102 | CC1(C)CCCN(C(=O)c2coc(=O)c(Br)c2)C1 [3-bromo-5-(3,3-dimethylpiperidine-1-carbonyl)pyran-2-one]
11300 | 0.45 | 86.3 | COc1ccc(C(=O)c2no[n+]([O-])c2C(=O)c2ccc(OC)cc2)cc1 [[4-(4-Methoxybenzoyl)-2-oxido-1-oxa-5-aza-2-azoniacyclopenta-2,4-dien-3-yl]-(4-methoxyphenyl)methanone]
19600 | 0.76 | 64.2 | O=C(O)c1cc(O)c2c(c1)C(=O)c1cccc(O)c1C2=O [4,5-Dihydroxy-9,10-dioxo-anthracene-2-carboxylic acid]
700 | 2.09 | 103 | Cc1cc(C(=O)O)ccc1-n1c(C)ccc1C [4-(2,5-Dimethylpyrrol-1-yl)-3-methyl-benzoic acid]
5950 | 2.08 | 59.4 | O=C1CCCC2=C1C(c1ccco1)Nc1ccc3ccccc3c12 (stereo not drawn) [5-(Furan-2-yl)-2,3,5,6-tetrahydrobenzo[a]phenantridin-4(1H)-one]
420 | 2.5 | 95.3 | COc1ccc(Br)cc1/C=c1\sc2nc(-c3ccco3)nn2c1=O [3-[(5-Bromo-2-methoxy-phenyl)methylidene]-7-(2-furyl)-4-thia-1,6,8-triazabicyclo[3.3.0]octa-5,7-dien-2-one]
1500 | 1.94 | 102 | Cc1nnc2sc(-c3ccc(NC(=O)c4ccc(-c5ccc(Cl)cc5Cl)o4)cc3)nn12 [5-(2,4-Dichlorophenyl)-N-[4-(2-methyl-6-thia-1,3,4,8-tetrazabicyclo[3.3.0]octa-2,4,7-trien-7-yl)phenyl]furan-2-carboxamide]
78400 | 2.71 | 64.3 | CN(C)c1ccc(-c2nn3c(-c4ccc(Cl)cc4Cl)nnc3s2)cc1 [4-[2-(2,4-Dichlorophenyl)-6-thia-1,3,4,8-tetrazabicyclo[3.3.0]octa-2,4,7-trien-7-yl]-N,N-dimethyl-aniline]
1300 | 2.59 | 102 | Cc1ccc(C)n1-c1cccc(C(=O)O)c1 [3-(2,5-Dimethylpyrrol-1-yl)benzoic acid]
6860 | 2.17 | 104 | COc1ccc(Cn2c(C)nc3c(c2=O)c2nc4ccccc4nc2n3Cc2ccco2)cc1
5270 | 2.48 | 89.7 | CC(C)Cn1c(N)c(C(=O)COC(=O)c2cc(-c3ccco3)nc3ccccc23)c(=O)n(C)c1=O [[2-[4-Amino-1-methyl-3-(2-methylpropyl)-2,6-dioxo-pyrimidin-5-yl]-2-oxo-ethyl] 2-(2-furyl)quinoline-4-carboxylate]
15100 | 1.27 | 79.4 | CCC1=NC2Sc3ccccc3C(=O)C2C(=O)N1Cc1ccco1 (stereo not drawn)
700 | 2.49 | 99.7 | Cc1cc(NC(=O)Cc2cccs2)no1 [N-(5-methyl-1,2-oxazol-3-yl)-2-thiophen-2-ylacetamide]
410 | 2.28 | 62.5 | CSc1nc(N(CCO)CCO)c2sc3nc(-c4ccco4)c4c(c3c2n1)CCC4
1170 | 3.7 | 57.2 | COc1ccc(N2Cc3cccc(C(=O)O)c3C2=O)cc1 [2-(4-Methoxyphenyl)-3-oxo-1H-isoindole-4-carboxylic acid]
30200 | 2.66 | 77.9 | C/C(N)=C(\C#N)C(=O)CSc1nnc(Nc2c(C)cccc2C)s1 [(Z)-3-Amino-2-[2-[[5-[(2,6-dimethylphenyl)amino]-1,3,4-thiadiazol-2-yl]sulfanyl]acetyl]but-2-enenitrile]

SMILES | IC50 (HePTP [1]) [nM] | n / nH (Hill coefficient) (HePTP [1]) | inhibition at 20 µM (HePTP [2]) [%]
CC(=O)OCC1=C(C(=O)[O-])N2C(=O)[C@H](NC(=O)Cc3cccs3)[C@H]2SC1.[Na+] [Sodium (6R,7S)-3-(acetyloxymethyl)-8-oxo-7-[(2-thiophen-2-ylacetyl)amino]-5-thia-1-azabicyclo[4.2.0]oct-2-ene-2-carboxylate] | 920 | 1.12 | 96.2

From patent US20120095032A1, “METHODS FOR TREATING LEUKEMIA AND MYELODYSPLASTIC SYNDROME, AND METHODS FOR IDENTIFYING AGENTS FOR TREATING SAME” (Sanford-Burnham Medical Research Institute, priority 2007, published 2012)
